According to patent US20070128217A1 (priority 2003, published 2007):

Columns and labels:
[1] = test system: antibodies in sera from SARS patients (sera 1a, 1b, 2, 6, 37, 62, London, SARS-yellow, SARS-green); format: binding, human; design: Binding of serum 6 to linear peptides of protein X1 of SARS-CoV Urbani / Binding of serum 37 to linear peptides of protein X1 of SARS-CoV Urbani / Binding of serum 6 to looped/cyclic peptide (PEPSCAN-ELISA) / Binding of serum 37 to looped/cyclic peptide (PEPSCAN-ELISA) / Binding of serum 37 to looped/cyclic peptides of protein X1 of SARS-CoV Urbani / Binding of serum 6 to linear peptides of protein X2 / Binding of serum 37 to linear peptides of protein X2 / Binding of serum 37 to looped/cyclic peptides of protein X2 of SARS-CoV Urbani / Binding of serum 6 to linear peptides of protein M of SARS-CoV Urbani / Binding of serum 37 to linear peptides of protein M of SARS-CoV Urbani / Binding of serum 6 to looped/cyclic peptides of protein M of SARS-CoV Urbani / Binding of serum 37 to looped/cyclic peptides of protein M of SARS-CoV Urbani / Binding of serum 6 to linear peptides of protein X3 of SARS-CoV Urbani / Binding of serum 37 to linear peptides of protein X3 of SARS-CoV Urbani / Binding of serum 37 to looped/cyclic peptides of protein X3 of SARS-CoV Urbani / Binding of serum 6 to linear peptides of protein X4 of SARS-CoV Urbani / Binding of serum 37 to linear peptides of protein X4 of SARS-CoV Urbani / Binding of serum 37 to looped/cyclic peptides of protein X4 of SARS-CoV Urbani / Binding of serum 6 to linear peptides of protein X5 of SARS-CoV Urbani / Binding of serum 37 to linear peptides of protein X5 of SARS-CoV Urbani / Binding of serum 37 to looped/cyclic peptides of protein X5 of SARS-CoV Urbani / Binding of serum 6 to linear peptides of protein N of SARS-CoV Urbani / Binding of serum 37 to linear peptides of protein N of SARS-CoV Urbani / Binding of serum 6 to linear peptide (PEPSCAN-ELISA) / Binding of serum 1a to looped/cyclic peptides of protein N of SARS-CoV Urbani / Binding of serum 1b to looped/cyclic peptides of protein N of SARS-CoV Urbani / Binding of serum 2 to looped/cyclic peptides of protein N of SARS-CoV Urbani / Binding of serum 6 to looped/cyclic peptides of protein N of SARS-CoV Urbani / Binding of serum 37 to looped/cyclic peptides of protein N of SARS-CoV Urbani / Binding of serum 62 to looped/cyclic peptides of protein N of SARS-CoV Urbani / Binding of serum London to looped/cyclic peptides of protein N of SARS-CoV Urbani / Binding of serum SARS-green to looped/cyclic peptides of protein N of SARS-CoV Urbani: unit not given here
[2] = test system: control sera (pooled serum of ten healthy LUMC hospital workers; commercial negative donor pooled serum from the Dutch bloodbank); format: binding, human; design: Binding of Control serum LUMC to linear peptides / Binding of Control serum Blood-bank to linear peptides / Binding of Control serum LUMC to looped peptides / Binding of Control Serum Blood-Bank to Looped peptides / Binding of Control serum LUMC to linear peptides of the protein M of SARS-CoV Urbani / Binding of Control serum Blood-bank to linear peptides of the protein M of SARS-CoV Urbani / Binding of Control serum LUMC to looped peptides of the protein M of SARS-CoV Urbani / Binding of Control Serum Blood-Bank to Looped peptides of the protein M of SARS-CoV Urbani: unit not given here
[3] = test system: rabbit serum obtained by immunizing a rabbit with the SARS-CoV strain Frankfurt 1; format: binding; design: Binding of a rabbit serum to linear peptides / Binding of a rabbit serum to looped peptides / Rabbit serum linear peptides / Rabbit serum looped peptides / Binding of a rabbit serum to linear peptides of protein N of SARS-CoV Urbani (Rabbit serum linear peptides) / Binding of a rabbit serum to looped/cyclic peptides of protein N of SARS-CoV Urbani (Rabbit serum looped peptides): unit not given here

Sequence: LSLHKLLQTLVLKML
- Binding of serum 1a to linear peptides of protein X2 [1]: 0.7
- Binding of serum 1a to looped/cyclic peptides of protein X2 of SARS-CoV Urbani [1]: 0.5
- Binding of serum 1b to linear peptides of protein X2 [1]: 0.4
- Binding of serum 1b to looped/cyclic peptides of protein X2 of SARS-CoV Urbani [1]: 0.4
- Binding of serum 2 to linear peptides of protein X2 [1]: 0.3
- Binding of serum 2 to looped/cyclic peptides of protein X2 of SARS-CoV Urbani [1]: 0.3
- Binding of serum 6 to linear peptides of protein X2 [1]: 0.3
- Binding of serum 6 to looped/cyclic peptides of protein X2 of SARS-CoV Urbani [1]: 0.6
- Binding of serum 37 to linear peptides of protein X2 [1]: 0.4
- Binding of serum 37 to looped/cyclic peptides of protein X2 of SARS-CoV Urbani [1]: 0.4
- Binding of serum 62 to linear peptides of protein X2 [1]: 0.5
- Binding of serum 62 to looped/cyclic peptides of protein X2 of SARS-CoV Urbani [1]: 0.6
- Binding of serum London to linear peptides of protein X2 [1]: 0.4
- Binding of serum London to looped/cyclic peptides of protein X2 of SARS-CoV Urbani [1]: 1.3
- Binding of serum SARS-green to linear peptides of protein X2 [1]: 0.4
- Binding of serum SARS-green to looped/cyclic peptides of protein X2 of SARS-CoV Urbani [1]: 0.2
- Binding of serum SARS-yellow to linear peptides of protein X2 [1]: 0.2
- Binding of serum SARS-yellow to looped/cyclic peptides of protein X2 of SARS-CoV Urbani [1]: 0.6
- Binding of Control Serum Blood-Bank to Looped peptides [2]: 0.6
- Binding of Control serum Blood-bank to linear peptides [2]: 0.5
- Binding of Control serum LUMC to linear peptides [2]: 0.2
- Binding of Control serum LUMC to looped peptides [2]: 0.7
- Binding of a rabbit serum to linear peptides [3]: 0.3
- Binding of a rabbit serum to looped peptides [3]: 0.5

Sequence: LSYFVASFRLFARTR
- Binding of serum 1a to linear peptides of protein M of SARS-CoV Urbani [1]: 0.7
- Binding of serum 1b to linear peptides of protein M of SARS-CoV Urbani [1]: 0.4
- Binding of serum 2 to linear peptides of protein M of SARS-CoV Urbani [1]: 0.4
- Binding of serum 6 to linear peptides of protein M of SARS-CoV Urbani [1]: 0.4
- Binding of serum 37 to linear peptides of protein M of SARS-CoV Urbani [1]: 0.6
- Binding of serum 62 to linear peptides of protein M of SARS-CoV Urbani [1]: 0.7
- Binding of serum London to linear peptides of protein M of SARS-CoV Urbani [1]: 0.3
- Binding of serum SARS-green to linear peptides of protein M of SARS-CoV Urbani [1]: 0.2
- Binding of serum SARS-yellow to linear peptides of protein M of SARS-CoV Urbani [1]: 0.1
- Recognition of the peptide by sera of SARS-CoV infected individuals, and form (linear, looped/cyclic) in which it is recognized [1]: recognized in looped/cyclic form
- Binding of Control Serum Blood-Bank to Looped peptides of the protein M of SARS-CoV Urbani [2]: 0.8
- Binding of Control serum Blood-bank to linear peptides of the protein M of SARS-CoV Urbani [2]: 0.6
- Binding of Control serum LUMC to linear peptides of the protein M of SARS-CoV Urbani [2]: 0.3
- Binding of Control serum LUMC to looped peptides of the protein M of SARS-CoV Urbani [2]: 1.0
- Rabbit serum linear peptides [3]: 0.4
- Rabbit serum looped peptides [3]: 0.6

Sequence: LTCTSTHFAFACADG
- Binding of serum 1a to linear peptides of protein X4 of SARS-CoV Urbani [1]: 0.8
- Binding of serum 1a to looped/cyclic peptides of protein X4 of SARS-CoV Urbani [1]: 0.6
- Binding of serum 1b to linear peptides of protein X4 of SARS-CoV Urbani [1]: 0.8
- Binding of serum 1b to looped/cyclic peptides of protein X4 of SARS-CoV Urbani [1]: 0.3
- Binding of serum 2 to linear peptides of protein X4 of SARS-CoV Urbani [1]: 0.5
- Binding of serum 2 to looped/cyclic peptides of protein X4 of SARS-CoV Urbani [1]: 0.6
- Binding of serum 6 to linear peptides of protein X4 of SARS-CoV Urbani [1]: 0.6
- Binding of serum 6 to looped/cyclic peptides of protein X4 of SARS-CoV Urbani [1]: 0.5
- Binding of serum 37 to linear peptides of protein X4 of SARS-CoV Urbani [1]: 0.8
- Binding of serum 37 to looped/cyclic peptides of protein X4 of SARS-CoV Urbani [1]: 0.5
- Binding of serum 62 to linear peptides of protein X4 of SARS-CoV Urbani [1]: 0.8
- Binding of serum 62 to looped/cyclic peptides of protein X4 of SARS-CoV Urbani [1]: 0.6
- Binding of serum London to linear peptides of protein X4 of SARS-CoV Urbani [1]: 0.8
- Binding of serum London to looped/cyclic peptides of protein X4 of SARS-CoV Urbani [1]: 0.3
- Binding of serum SARS-green to linear peptides of protein X4 of SARS-CoV Urbani [1]: 0.8
- Binding of serum SARS-green to looped/cyclic peptides of protein X4 of SARS-CoV Urbani [1]: 0.4
- Binding of serum SARS-yellow to linear peptides of protein X4 of SARS-CoV Urbani [1]: 0.5
- Binding of serum SARS-yellow to looped/cyclic peptides of protein X4 of SARS-CoV Urbani [1]: 0.4
- Binding of Control Serum Blood-Bank to Looped peptides [2]: 0.7
- Binding of Control serum Blood-bank to linear peptides [2]: 0.8
- Binding of Control serum LUMC to linear peptides [2]: 0.8
- Binding of Control serum LUMC to looped peptides [2]: 0.6
- Rabbit serum linear peptides [3]: 0.5
- Rabbit serum looped peptides [3]: 0.3
